Square brackets hold non-standard residues; d marks the D form. Peptide text beside a SMILES is read from it. * marks the point of attachment. ξ: configuration not given here. ξF = NC(Cc1ccccc1)C(=O)O; Cbz = O=C(OCc1ccccc1)*
Experiments:
[1] = organism: Mus musculus; assay: Inhibitory activity of compound was tested for lethal convulsions induced by NMDA in mice; assay type: functional
[2] = molecular target: T1, Calpain-1 catalytic subunit (Homo sapiens, UniProt P07384); assay: Inhibition of Suc-Leu-Tyr-AMC binding to human mu-calpain from erythrocytes; assay type: biochemical
T1 sequence (P07384 whole entry): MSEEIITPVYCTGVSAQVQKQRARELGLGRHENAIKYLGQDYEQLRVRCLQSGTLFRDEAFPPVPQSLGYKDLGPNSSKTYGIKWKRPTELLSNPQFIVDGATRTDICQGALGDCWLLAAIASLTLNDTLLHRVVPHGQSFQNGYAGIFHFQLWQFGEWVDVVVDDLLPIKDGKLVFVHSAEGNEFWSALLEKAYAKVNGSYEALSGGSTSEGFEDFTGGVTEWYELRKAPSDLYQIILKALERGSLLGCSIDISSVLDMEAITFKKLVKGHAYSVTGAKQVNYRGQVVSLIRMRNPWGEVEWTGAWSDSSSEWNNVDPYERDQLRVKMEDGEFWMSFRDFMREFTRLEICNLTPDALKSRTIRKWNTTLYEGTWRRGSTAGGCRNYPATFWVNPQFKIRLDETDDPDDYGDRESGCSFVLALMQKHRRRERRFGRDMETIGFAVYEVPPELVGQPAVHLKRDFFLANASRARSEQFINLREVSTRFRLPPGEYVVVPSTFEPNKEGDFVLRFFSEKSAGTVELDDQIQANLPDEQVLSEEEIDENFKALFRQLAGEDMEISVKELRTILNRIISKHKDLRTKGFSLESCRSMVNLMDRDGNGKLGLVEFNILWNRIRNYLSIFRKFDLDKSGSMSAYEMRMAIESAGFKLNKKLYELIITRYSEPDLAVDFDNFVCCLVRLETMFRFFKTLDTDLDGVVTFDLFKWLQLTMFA

[3] = molecular target: Cathepsin B (Homo sapiens, UniProt P07858); assay: Inhibition of human Cathepsin B
[4] = Inhibition of calpain-mediated pp60src degradation in platelets; assay type: functional, Homo sapiens

SMILES: NC(=O)C(=O)C(Cc1ccccc1)NC(=O)C1CCN(C(=O)c2cc3ccccc3s2)CC1 (stereo not given)
- ED50 [1]: 1 mg/kg
- Ki [2]: 9 nM
- Ki [3]: 3200 nM

SMILES: O=C(NCCCN1CCOCC1)C(=O)C(Cc1ccccc1)NC(=O)C1CCN(S(=O)(=O)c2ccc3ccccc3c2)CC1 (stereo not given)
- Ki [2]: 810 nM

SMILES: NC(=O)C(=O)C(Cc1ccccc1)NC(=O)C1CCN(C(=O)/C=C/c2ccccc2)CC1 (stereo not given)
- Ki [2]: 460 nM

SMILES: CC(C)CC(NC(=O)C1CCN(C(=O)/C=C/c2ccccc2)CC1)C(=O)C(N)=O (stereo not given)
- Ki [2]: 1350 nM

SMILES: CCNC(=O)C(=O)C(Cc1ccccc1)NC(=O)C1CCN(S(=O)(=O)c2ccc3ccccc3c2)CC1 (stereo not given)
- Ki [2]: 800000 nM

SMILES: NC(=O)C(=O)C(Cc1ccccc1)NC(=O)C1CCN(Cc2ccc3ccccc3c2)CC1 (stereo not given)
- Ki [2]: 13600 nM

SMILES: NC(=O)C(=O)C(Cc1ccccc1)NC(=O)C1CCN(S(=O)(=O)c2ccc3ccccc3c2)CC1 (stereo not given)
- Ki [2]: 450 nM

SMILES: NC(=O)C(=O)C(Cc1ccccc1)NC(=O)C1CCN(C(=O)c2ccccc2)CC1 (stereo not given)
- Ki [2]: 560 nM

SMILES: CC(C)[C@H](NC(=O)OCc1ccccc1)C(=O)NC(C=O)Cc1ccccc1 (stereo partly drawn) (Cbz-Val-[ξF]-aldehyde)
- IC50 [4]: 700 nM

SMILES: NC(=O)C(=O)C(Cc1ccccc1)NC(=O)C1CCN(C(=O)c2ccc3ccccc3c2)CC1 (stereo not given)
- ED50 [1]: 1.3 mg/kg
- IC50 [4]: 1800 nM
- Ki [2]: 30 nM
- Ki [3]: 7300 nM

SMILES: O=C(NCCCN1CCOCC1)C(=O)C(Cc1ccccc1)NC(=O)C1CCN(C(=O)c2ccc3ccccc3c2)CC1 (stereo not given)
- Ki [2]: 960 nM

SMILES: NC(=O)C(=O)C(Cc1ccccc1)NC(=O)C1CCN(C(=O)c2cnc3ccccc3c2)CC1 (stereo not given)
- Ki [2]: 670 nM

SMILES: CCC(NC(=O)C1CCN(C(=O)/C=C/c2ccccc2)CC1)C(=O)C(N)=O (stereo not given)
- Ki [2]: 33000 nM

SMILES: NC(=O)C(=O)C(Cc1ccccc1)NC(=O)C1CCN(C(=O)/C=C/c2ccncc2)CC1 (stereo not given)
- Ki [2]: 13500 nM

SMILES: NC(=O)C(=O)C(Cc1ccccc1)NC(=O)C1CCN(C(=O)c2ccc3ncccc3c2)CC1 (stereo not given)
- Ki [2]: 160 nM
